In patent US20220411362A1, “DITERPENOID COMPOUNDS THAT ACT ON PROTEIN KINASE C (PKC)” (K-Gen, Inc., priority 2019, published 2022):
pKi: −log10 of the molar value.

How the values were obtained:
C1b domain of human PKCα = target: T1, C1b domain of human PKCα (Homo sapiens, UniProt P17252); assay: biochemical; format: binding; details: 3H-PDBu competition; for pKi: Ki PKCα
T1 construct: Genes encoding C1b domains of human PKCα, δ, ε, θ, and PKD1 (PKCμ) were synthesized; made in house; host or cells: E. coli BL21(DE3)
Summary of the method: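 Competitive binding against 3H-PDBu tracer used recombinant GST-C1b fusion protein expressed in E. coli. Incubation ran 10 min at 37°C with shaking, then 20 min on ice, followed by filtration and scintillation counting of trapped 3H-PDBu. Affinity was derived using each protein preparation's experimentally determined Kd for 3H-PDBu.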

C1b domain of human PKCθ = target: T2, C1b domain of human PKCθ (Homo sapiens, UniProt Q04759); assay: Competitive 3H-PDBu binding to C1b domain of PKCθ
T2 construct: Genes encoding C1b domains of human PKCα, δ, ε, θ, and PKD1 (PKCμ) were synthesized; made in house; host or cells: E. coli BL21(DE3)
T2 sequence (Q04759 231-281 limits assumed): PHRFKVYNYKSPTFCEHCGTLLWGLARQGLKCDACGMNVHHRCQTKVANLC
Summary of the method: (§1)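 Ki derived by Cheng-Prusoff from IC50, with each protein batch's measured ^3H-PDBu Kd. Displacement of ^3H-PDBu from E. coli-produced GST-fused C1b domains or full-length human PKC was run 10 min at 37°C plus 20 min on ice, with filter capture and scintillation counting.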

C1b domain of human PKCε = target: T3, C1b domain of human PKCε (Homo sapiens, UniProt Q02156); assay: Competitive 3H-PDBu binding to C1b domain of PKCε
T3 construct: Genes encoding C1b domains of human PKCα, δ, ε, θ, and PKD1 (PKCμ) were synthesized; made in house; host or cells: E. coli BL21(DE3)
Summary of the method: as §1

[1] = tested on: A549 non-small cell lung cancer cell line; assay: Proliferation of A549 (CellTiter Glo); format: cell-based; details: Homo sapiens, A549, 96 h, read-out: IC50 μM (A549 Cell Line)
Summary of the method: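 Luminescent CellTiter Glo read-out after 96 h compound exposure of A549 cells plated at 1,000/well and rested 24 h at 37° C; DMSO kept ≤0.25%, dilutions 3-fold. Inhibition taken relative to DMSO-treated wells; IC50, relative IC50 and top inhibition derived by curve fitting.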

[2] = tested on: HL-60 (Leukemia) cell line; assay: Proliferation of HL-60; format: cell-based; details: for ratio of (IC50 of K01)/(IC50 of compound), HL-60: value in parenthesis; for IC50: Homo sapiens, HL-60, read-out: IC50 in μM HL-60 (Leukemia)
Summary of the method: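 Per-line seeding (KP-4 800-1000; HL-60 5000; Namalwa and Mino 5000-10000 cells/well), then 96 h with compound in ≤0.25% DMSO. Luminescence measured 10 min post CellTiter Glo; IC50 and % top inhibition derived from DMSO-normalised inhibition.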

[3] = tested on: phosphorylation of CaMKii at T286 in Panc1 cells; assay: CaMKii phosphorylation in Panc1 cell line (Western blot); format: cell-based; details: 0.02 μM and 0.1 M, 48 hours (FIG. 5)
Method: Panc1 (a pancreatic cancer cell line) cells (˜5-8 millions) were seeded in 10 cm dishes (or ˜2 millions in 6 cm dishes) and treated next day with prostratin (K-101, 0.2 μM and 1 μM) or 0.02 μM and […] of K101-C1347, -C134801, and -C134802 for 48 hours. Cells were then collected/lysed for Western blot analysis. Protein quantification, SDS-PAGE, and Western blot procedures were performed as described in Example 65, except that a different lysis buffer (1 ml of 10×TNE [20 mL 1M Tris pH7.5; 30 mL 5M NaCl; 2 mL 0.5M EDTA; 48 mL d2H2O], 1 ml of 10% NP40, 7.7 mL of dH2O, 100 μL of 10× Protease inhibitors, 100 μL of 10× Phosphatase inhibitors, and 10 μl DTT) was used. To assess the effect of diterpenoid compounds on CaMKii phosphorylation, a phospho-specific antibody P-CaMKii (T286) (Abcam, cat #32678) was used for detection. Phosphorylation of CaMKii at T286 is a marker for activation of CaMKii kinase in the Wnt/Ca^2+ signaling pathway when […] and thus a downstream marker for inhibition of K-Ras stemness (Wang et al., Cell. 2015, 163(5):1237-51).

T3 sequence (Q02156 242-292 limits assumed): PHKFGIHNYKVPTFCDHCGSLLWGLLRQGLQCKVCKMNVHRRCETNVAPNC

Row | Structure (SMILES) | Ki PKCα (C1b domain of human PKCα) | pKi (C1b domain of human PKCθ) | pKi (C1b domain of human PKCε) | IC50 [1] [µM] | ratio of (IC50 of K01)/(IC50 of compound), HL-60 [2] | IC50 [2] [µM] | pKi (C1b domain of human PKCα) | phosphorylation of CaMKii at T286 [3]
1 | CC1=C[C@H]2[C@@]3(O)[C@H](C)C[C@]4(OC(=O)[C@@H](N)CC5CCCCC5)[C@H]([C@@H]3C=C(CO)C[C@]2(O)C1=O)C4(C)C [Compound K101-C1327] | E (E=>60 nM and ≤10 nM) | 8.00 to 8.30 | 7.52 to 9.00 | 0.06 to 0.1 | 2.32 | 0.03 to 0.06 |  | 
2 | CC1=C[C@H]2[C@@]3(O)[C@H](C)C[C@]4(OC(=O)[C@@H](N)[C@]56C[C@H]7C[C@H](C[C@H](C7)C5)C6)[C@H]([C@@H]3C=C(CO)C[C@]2(O)C1=O)C4(C)C [Compound K101-C1347] |  | > 8.30 | 8.00 to 8.30 | 0.001 to 0.01 | 16.2 | 0.001 to 0.01 | 7.52 to 9.00 | induced phosphorylation of CaMKii at T286
3 | CC1=C[C@H]2[C@@]3(O)[C@H](C)C[C@]4(OC(=O)[C@H](N)CCCCCCc5ccccc5)[C@H]([C@@H]3C=C(CO)C[C@]2(O)C1=O)C4(C)C [Compound K101-C134801] |  | 7.52 to 9.00 | 7.52 to 9.00 | 0.01 to 0.03 | 4.43 | 0.01 to 0.03 | 6.10 to 6.40 | induced phosphorylation of CaMKii at T286
4 | CC1=C[C@H]2[C@@]3(O)[C@H](C)C[C@]4(OC(=O)[C@@H](N)CCCCCCc5ccccc5)[C@H]([C@@H]3C=C(CO)C[C@]2(O)C1=O)C4(C)C [Compound K101-C134802] |  | > 8.30 | 7.52 to 9.00 | 0.001 to 0.01 | 12.1 | 0.001 to 0.01 | 7.22 to 7.52 | induced phosphorylation of CaMKii at T286
